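Exposure lasted 48 hours, with cells grown in 96-well plates and compounds tested at five concentrations. Here, GI50 denotes the concentration required for 50% inhibition of growth.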 The source made the active and inactive calls. Rule as the data show it: active = GI50 up to about 1.1 µM and inactive = higher.
Legend:
Experiment in all cases: NCI-60 cell line screen, 48 h
[1] = tested on: 786-0
[2] = tested on: A498
[3] = tested on: A549
[4] = tested on: ACHN
[5] = tested on: BT-549
[6] = tested on: CAKI-1
[7] = tested on: CCRF-CEM
[8] = tested on: COLO 205
[9] = tested on: DU-145
[10] = tested on: EKVX
[11] = tested on: HCC 2998
[12] = tested on: HCT-116
[13] = tested on: HCT-15
[14] = tested on: HL-60
[15] = tested on: HOP-62
[16] = tested on: HOP-92
[17] = tested on: HT-29
[18] = tested on: IGROV-1
[19] = tested on: K562
[20] = tested on: KM12
[21] = tested on: LOX IMVI
[22] = tested on: M14
[23] = tested on: MCF7
[24] = tested on: MDA-MB-231
[25] = tested on: MDA-MB-435
[26] = tested on: MDA-N
[27] = tested on: MOLT-4
[28] = tested on: Malme-3M
[29] = tested on: NCI-H226
[30] = tested on: NCI-H23
[31] = tested on: NCI-H460
[32] = tested on: NCI-H522
[33] = tested on: NCI/ADR-RES
[34] = tested on: OVCAR-3
[35] = tested on: OVCAR-4
[36] = tested on: OVCAR-5
[37] = tested on: OVCAR-8
[38] = tested on: PC-3
[39] = tested on: RPMI-8226
[40] = tested on: RXF 393
[41] = tested on: SF-268
[42] = tested on: SF-295
[43] = tested on: SF-539
[44] = tested on: SK-MEL-28
[45] = tested on: SK-MEL-2
[46] = tested on: SK-MEL-5
[47] = tested on: SK-OV-3
[48] = tested on: SN12C
[49] = tested on: SNB-19
[50] = tested on: SNB-75
[51] = tested on: SR
[52] = tested on: SW-620
[53] = tested on: T47D
[54] = tested on: TK-10
[55] = tested on: U-251
[56] = tested on: UACC-257
[57] = tested on: UACC-62
[58] = tested on: UO-31
[59] = tested on: Hs-578T

Measured: GI50

[N-]=[N+]=CC(=O)COC(=O)c1ccccc1
> 100 µM: [13]
inactive: [1] > 100 µM | [2] > 100 µM | [3] 74.1 µM | [4] > 100 µM | [5] > 100 µM | [6] > 100 µM | [7] > 100 µM | [8] > 100 µM | [9] > 100 µM | [10] > 100 µM | [11] > 100 µM | [12] > 100 µM | [14] > 100 µM | [15] > 100 µM | [16] 78 µM | [17] > 100 µM | [18] > 100 µM | [19] > 100 µM | [20] > 100 µM | [21] > 100 µM | [22] > 100 µM | [23] 88.5 µM | [24] > 100 µM | [25] > 100 µM | [26] > 100 µM | [27] > 100 µM | [28] > 100 µM | [29] > 100 µM | [30] > 100 µM | [31] > 100 µM | [32] > 100 µM | [33] > 100 µM | [34] > 100 µM | [35] > 100 µM | [36] > 100 µM | [37] > 100 µM | [38] > 100 µM | [39] 74.1 µM | [40] > 100 µM | [41] > 100 µM | [42] > 100 µM | [43] > 100 µM | [44] > 100 µM | [45] > 100 µM | [46] > 100 µM | [47] > 100 µM | [48] > 100 µM | [49] > 100 µM | [50] > 100 µM | [51] 74.6 µM | [52] > 100 µM | [53] > 100 µM | [54] > 100 µM | [55] > 100 µM | [56] > 100 µM | [57] > 100 µM | [58] > 100 µM

C[C@H](N)C(=O)Nc1ccc(-c2nc3ccccc3s2)cc1Cl
active: [11] 0.56 µM | [18] 0.165 µM | [29] 0.0745 µM | [31] 0.916 µM | [34] 0.153 µM | [36] 0.27 µM | [54] 0.161 µM
inactive: [1] 12.5 µM | [3] 13.3 µM | [4] 15.4 µM | [5] 16.3 µM | [6] 10.7 µM | [7] 12 µM | [8] 12.5 µM | [9] 16.6 µM | [10] 11.9 µM | [12] 11.6 µM | [15] 12.3 µM | [16] 33.1 µM | [17] 16.7 µM | [59] 20.1 µM | [19] 17.1 µM | [20] 15 µM | [21] 7.82 µM | [22] 5.78 µM | [25] 13.6 µM | [26] 13.2 µM | [27] 17.7 µM | [28] 22.1 µM | [30] 16.5 µM | [32] 20.5 µM | [33] 30.8 µM | [37] 26 µM | [38] 13.8 µM | [40] 15.1 µM | [41] 17.9 µM | [42] 16.6 µM | [44] 14 µM | [45] 15.7 µM | [46] 16.1 µM | [47] 16.4 µM | [48] 15.9 µM | [49] 16.3 µM | [50] 16 µM | [51] 3.8 µM | [52] 15.2 µM | [55] 14.6 µM | [56] 18.6 µM | [57] 16.4 µM | [58] 10.7 µM
19.6 µM: [13]

Nc1nc2ncc(SCc3ccc(C(=O)NC(CCC(=O)O)C(=O)O)cc3)cc2c(=O)[nH]1 (configuration not stated)
inactive: [1] > 100 µM | [2] > 100 µM | [3] > 100 µM | [4] > 100 µM | [5] > 100 µM | [6] > 100 µM | [8] > 100 µM | [9] > 100 µM | [10] > 100 µM | [11] > 100 µM | [12] > 100 µM | [14] > 100 µM | [15] > 100 µM | [16] > 100 µM | [17] > 100 µM | [59] > 100 µM | [18] > 100 µM | [19] > 100 µM | [20] > 100 µM | [21] > 100 µM | [22] > 100 µM | [23] > 100 µM | [25] > 100 µM | [26] > 100 µM | [27] > 100 µM | [28] > 100 µM | [29] > 100 µM | [30] > 100 µM | [31] > 100 µM | [32] > 100 µM | [33] > 100 µM | [34] > 100 µM | [35] > 100 µM | [36] > 100 µM | [37] > 100 µM | [38] > 100 µM | [39] 19.4 µM | [41] > 100 µM | [42] > 100 µM | [43] > 100 µM | [44] > 100 µM | [45] > 100 µM | [46] > 100 µM | [47] > 100 µM | [48] > 100 µM | [49] > 100 µM | [51] > 100 µM | [52] > 100 µM | [54] > 100 µM | [55] > 100 µM | [56] > 100 µM | [57] > 100 µM | [58] > 100 µM
> 100 µM: [13]

N#Cc1cc2c(n(C3OC(CO)C(O)C(O)C3O)c1=S)CCCCC2 (configuration not stated)
> 100 µM: [13]
inactive: [1] > 100 µM | [2] > 100 µM | [3] > 100 µM | [4] > 100 µM | [5] > 100 µM | [6] > 100 µM | [7] > 100 µM | [8] > 100 µM | [9] > 100 µM | [11] > 100 µM | [12] > 100 µM | [14] > 100 µM | [15] > 100 µM | [16] > 100 µM | [17] > 100 µM | [59] > 100 µM | [18] > 100 µM | [19] > 100 µM | [20] > 100 µM | [21] > 100 µM | [22] > 100 µM | [23] > 100 µM | [24] > 100 µM | [25] > 100 µM | [26] > 100 µM | [27] > 100 µM | [28] > 100 µM | [29] > 100 µM | [30] > 100 µM | [31] > 100 µM | [32] > 100 µM | [33] > 100 µM | [34] > 100 µM | [35] > 100 µM | [36] > 100 µM | [37] > 100 µM | [38] > 100 µM | [39] > 100 µM | [40] > 100 µM | [41] > 100 µM | [42] > 100 µM | [43] > 100 µM | [44] > 100 µM | [45] > 100 µM | [46] > 100 µM | [48] > 100 µM | [49] > 100 µM | [50] > 100 µM | [51] > 100 µM | [54] > 100 µM | [55] > 100 µM | [56] > 100 µM | [57] > 100 µM | [58] > 100 µM

OCC1NC(CO)C(O)C1O (configuration not stated)
inactive: [5] > 100 µM | [7] > 100 µM | [14] > 100 µM | [15] > 100 µM | [59] > 100 µM | [26] > 100 µM | [34] > 100 µM | [35] > 100 µM | [36] > 100 µM | [38] > 100 µM | [39] > 100 µM | [40] > 100 µM | [45] > 100 µM | [48] > 10 µM | [49] > 100 µM | [51] > 100 µM | [52] > 100 µM | [55] > 100 µM | [56] > 100 µM

— ChEMBL document CHEMBL1201862, “PubChem BioAssay data set” (2004)
